Test results as given in BindingDB's records for doi:10.7270/Q2J101KZ (University of Pittsburgh, 2007).

Biological target: T1, M-phase inducer phosphatase 2 (Homo sapiens, UniProt P30305)
T1 sequence (P30305 whole entry): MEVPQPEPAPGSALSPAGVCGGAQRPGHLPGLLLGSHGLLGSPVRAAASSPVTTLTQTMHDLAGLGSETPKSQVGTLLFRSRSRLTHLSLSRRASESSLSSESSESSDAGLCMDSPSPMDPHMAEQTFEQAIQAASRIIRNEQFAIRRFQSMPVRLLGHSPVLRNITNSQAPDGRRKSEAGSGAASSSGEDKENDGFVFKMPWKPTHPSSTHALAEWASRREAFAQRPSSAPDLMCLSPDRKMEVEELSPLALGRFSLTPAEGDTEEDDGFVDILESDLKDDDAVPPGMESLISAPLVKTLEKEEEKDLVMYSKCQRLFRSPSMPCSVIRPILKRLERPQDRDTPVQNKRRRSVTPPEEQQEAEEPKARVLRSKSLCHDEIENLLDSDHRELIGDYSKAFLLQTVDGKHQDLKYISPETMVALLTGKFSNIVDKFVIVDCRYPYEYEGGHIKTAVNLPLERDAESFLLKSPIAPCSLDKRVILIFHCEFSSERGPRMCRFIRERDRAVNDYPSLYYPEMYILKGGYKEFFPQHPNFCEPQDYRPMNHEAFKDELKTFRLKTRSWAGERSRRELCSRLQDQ
Test: Cdc25B catalytic domain phosphatase inhibitors, dose response, biochemical, with glutathione, probe assessment (AID 671)

First: O=C(Nc1ccc2nc(-c3ccco3)c(-c3ccco3)nc2c1)N1CCCCCC1
Second: c1ccc(CSc2nnc(-c3ccco3)c(-c3ccco3)n2)cc1 [MLS-0029114.0001]
The IC50 of the first is 2.1-fold higher: 23.7 µM for the first, 11.1 µM for the second.

Cc1ccc2c(c1C)NC(C(=O)O)C1CC=CC21 (stereo unspecified) and O=C(O)C1Nc2c(O)cccc2C2C=CCC12 (stereo unspecified) are within 1.5-fold of each other in IC50: 4.73 µM for the first, 6.76 µM for the second.

First: Cn1ncnc2c(=O)n(C)c(=O)nc1-2
Second: CCn1nc(-c2cccs2)nc2c(=O)n(C)c(=O)nc1-2 [1-ethyl-6-methyl-3-thiophen-2-yl-pyrimido[5,4-e][1,2,4]triazine-5,7-dione]
The IC50 of the first is lower: 35.5 µM for the first, > 50 µM for the second. The first is the more potent here.

[O-]/[N+](=C\c1ccncc1)c1ccccc1 and [O-]/[N+](=C\c1ccc(OC(F)F)cc1)c1ccccc1 [1-[4-(difluoromethoxy)phenyl]-N-phenylmethanimine oxide] cannot be ordered by IC50: > 50 µM for the first, > 50 µM for the second.

COc1cccc2c(C)c(C(=O)O)[nH]c12 and COc1cccc2c1NC(C(=O)O)C1CC=CC21 (stereo unspecified) [SMR000009698] are within 1.5-fold of each other in IC50: 6.8 µM for the first, 8.23 µM for the second.

First: O=C1C=Cc2ccccc2C1=O [1,2-dihydronaphthalene-1,2-dione]
Second: O=C1Cc2ccccc2C(=O)N1CCc1ccccc1 [2-(2-phenylethyl)-4H-isoquinoline-1,3-dione]
The IC50 of the first is lower: 25 µM for the first, > 50 µM for the second.

CCn1nc(-c2ccccc2)nc2c(=O)n(C)c(=O)nc1-2 [1-Ethyl-6-methyl-3-phenyl-1H-pyrimido[5,4-e][1,2,4]triazine-5,7-dione] and Cc1c(N=c2c(=O)c3ccccc3c2=O)c(=O)n(-c2ccccc2)n1C [MLS000105950] cannot be ordered by IC50: > 50 µM for the first, > 50 µM for the second.

First: N#Cc1c(N)sc(=S)c2c1CCN(Cc1ccccc1)C2 [3-Amino-7-benzyl-1-thioxo-5,6,7,8-tetrahydro-1H-thiopyrano[3,4-c]pyridine-4-carbonitrile]
Second: O=C(NC1(O)C(=O)c2ccccc2C1=O)c1ccccc1 [N-(2-hydroxy-1,3-dioxo-2-indenyl)benzamide]
The IC50 of the first is lower: 43 µM for the first, > 50 µM for the second.

Cc1ccccc1Nc1cc2ccccc2c(O)n1 [3-[(2-methylphenyl)amino]-2H-isoquinolin-1-one] and Oc1nc(Nc2ccccc2)cc2ccccc12 [MLS000043701] cannot be ordered by IC50: > 50 µM for the first, > 50 µM for the second.

Going from COc1ccc(Br)cc1C=c1sc2nc(-c3ccco3)nn2c1=O [5-[(5-bromanyl-2-methoxy-phenyl)methylidene]-2-(furan-2-yl)-[1,3]thiazolo[3,2-b][1,2,4]triazol-6-one] to COc1ccc2noc3c2c1C(=O)c1ccccc1-3 [MLS000106874], the IC50 rises from 2.13 µM to > 50 µM. The first is the more potent here.

CC(=O)Nc1cc(OC(C)=O)c2nonc2c1OC(C)=O [Acetic acid 7-acetoxy-5-acetylamino-benzo[1,2,5]oxadiazol-4-yl ester] and CCOC(=O)C(C(=O)OCC)c1cc(Br)c2noc3c2c1C(=O)c1ccccc1-3 [MLS000038842] cannot be ordered by IC50: > 50 µM for the first, > 50 µM for the second.

CCOc1ccc2noc3c2c1C(=O)c1ccccc1-3 [MLS000106837] and Nc1cccc2cnccc12 [isoquinolin-5-amine] cannot be ordered by IC50: > 50 µM for the first, > 50 µM for the second.

Going from O=C(OC1CCCCC1)c1ccc2c(c1)C1C=CCC1C(C(=O)O)N2 (stereo unspecified) [SMR000019385] to N#Cc1c(N2CCCC2)nc(N)c2c(N)nc(N3CCCC3)cc12 [SMR000061605], the IC50 rises from 2.79 µM to > 50 µM. The first is the more potent here.
